The values that follow are results of earlier work, collected in PubChem BioAssay AID1259409 (Chemical Carcinogenesis Research Information System (CCRIS), 2018).

For the data set, the system named is rodent chemically induced tumor inhibition, incidence and multiplicity. Kind of data set: CCRIS tumor inhibitor studies. To be noted: Promoter: NONE USED.

As to `C=C(C)[C@H]1CC=C(C)CC1`, the “tumour outcome (control, treated, inhibition, significance)” value by setting is: (Carcinogen: 4-(METHYLNITROSAMINO)-1-(3-PYRIDYL)-1-BUTANONE, 64019-91-4, Dose [Inhibitor]: 0, 25 MG LIMONENE OIL 0.2 ML COTTONSEED OIL 1 HR PRIOR TO EACH CARCINOGEN DOSE (STUDY DURATION: 28 WK), Route [Inhibitor]: INTRAGASTRIC, Species: MOUSE, Strain/Sex: STRAIN-A/FEMALE, Target Tissue: Type of Lesion: FORESTOMACH: PAPILLOMA, Dose [Carcinogen]: 0.5 MG IN O.1 ML TRICAPRYLIN 2/WK FOR 8 WK) 17%, 0%, 100%,; (Carcinogen: 4-(METHYLNITROSAMINO)-1-(3-PYRIDYL)-1-BUTANONE, 64091-91-4, Dose [Inhibitor]: 0, 0.63% IN DIET FOR 17 WK BEGINNING 1 WK PRIOR TO CARCINOGEN DOSE (STUDY DURATION: 17 WK), Route [Inhibitor]: ORAL, Species: MOUSE, Strain/Sex: STRAIN-A/FEMALE, Target Tissue: Type of Lesion: LUNG: ADENOMA, Dose [Carcinogen]: 10 UMOL IN 0.1 ML SALINE ONCE) 100%, 96%, 4%, not significant; (Carcinogen: 4-(METHYLNITROSAMINO)-1-(3-PYRIDYL)-1-BUTANONE, 64091-91-4, Dose [Inhibitor]: 0, 25 MG IN 0.2 ML COTTONSEED OIL 1 HR PRIOR TO EACH CARCINOGEN DOSE (STUDY DURATION: 28 WK), Route [Inhibitor]: INTRAGASTRIC, Species: MOUSE, Strain/Sex: STRAIN-A/FEMALE, Target Tissue: Type of Lesion: FORESTOMACH: PAPILLOMA, Dose [Carcinogen]: 0.5 MG IN 0.1 ML TRICAPRYLIN 2/WK FOR 8 WK) 90%, 0%, 100%, p<0.001; (Carcinogen: 4-(METHYLNITROSAMINO)-1-(3-PYRIDYL)-1-BUTANONE, 64091-91-4, Dose [Inhibitor]: O, 25 MG LIMONENE FROM LEMON OIL IN 0.2 ML COTTONSEED OIL 1 HR PRIOR TO EACH CARCINOGEN DOSE (STUDY DURATION: 28 WK), Route [Inhibitor]: INTRAGASTRIC, Species: MOUSE, Strain/Sex: STRAIN-A/FEMALE, Target Tissue: Type of Lesion: FORESTOMACH: PAPILLOMA, Dose [Carcinogen]: 0.5 MG IN OIL ML TRICAPRYLIN 2/WK FOR 8 WK) 17%, 0%, 100%, not calculated; (Carcinogen: 7,12-DIMETHYLBENZ[A]ANTHRACENE, 57-97-6, Dose [Inhibitor]: 0, 1% IN DIET FOR 3 WK BEGINNING 2 WK PRIOR TO CARCINOGEN DOSE (STUDY DURATION: 20 WK), Route [Inhibitor]: ORAL, Species: RAT, Strain/Sex: WISTAR/FEMALE, Target Tissue: Type of Lesion: MAMMARY GLAND: CARCINOMA, Dose [Carcinogen]: 50 MG/KG IN SESAME OIL ONCE) 98%, 96%, 2%, not significant; (Carcinogen: 7,12-DIMETHYLBENZ[A]ANTHRACENE, 57-97-6, Dose [Inhibitor]: 0, 5% IN DIET BEGINNING POST CARCINOGEN TREATMENT AND CONTINUING FOR 25 WK (STUDY DURATION: 25 WK), Route [Inhibitor]: ORAL, Species: RAT, Strain/Sex: SPRAGUE-DAWLEY/FEMALE, Target Tissue: Type of Lesion: MAMMARY GLAND: TUMOR, Dose [Carcinogen]: 65 MG/KG IN SESAME OIL ONCE) 100%, 97%, 3%, not significant. Further, the “tumour outcome (control, treated, inhibition, significance)” value is 100%, 88%, 12%, not significant (Carcinogen: 7,12-DIMETHYLBENZ[A]ANTHRACENE, 57-97-6, Dose [Inhibitor]: 0, 5% IN DIET FOR 1 WK PRIOR TO AND 1 WK POST CARCINOGEN TREATMENT (STUDY DURATION: 25 WK), Route [Inhibitor]: ORAL, Species: RAT, Strain/Sex: SPRAGUE-DAWLEY/FEMALE, Target Tissue: Type of Lesion: MAMMARY GLAND: TUMOR, Dose [Carcinogen]: 65 MG/KG IN SESAME OIL ONCE); 91%, 75%, 18%, not significant (Carcinogen: 7,12-DIMETHYLBENZ[A]ANTHRACENE, 57-97-6, Dose [Inhibitor]: 0, 36 MMOL/KG IN DIET FOR 24 WK BEGINNING 2 WK PRIOR TO CARCINOGEN DOSE (STUDY DURATION: 24 WK), Route [Inhibitor]: ORAL, Species: RAT, Strain/Sex: SPRAGUE-DAWLEY/FEMALE, Target Tissue: Type of Lesion: MAMMARY GLAND: TUMOR, Dose [Carcinogen]: 65 MG/KG BW ONCE); 16/50 (32%), 13/50 (26%), 19%, not calculated (Carcinogen: BENZO[A]PYRENE, 50-32-8, Dose [Inhibitor]: 10 MG IN 0.1 ML ACETONE 3/WK ADMINISTERED SIMULTANEOUSLY WITH CARCINOGEN FOR DURATION OF STUDY (STUDY DURATION: 440 D), Route [Inhibitor]: DERMAL, Species: MOUSE, Strain/Sex: ICR/FEMALE, Target Tissue: Type of Lesion: SKIN: PAPILLOMA, Dose [Carcinogen]: 5 UG IN 0.1 ML ACETONE 3/WK FOR DURATION OF STUDY); 12/50 (24%), 4/50 (8%), 67%, not calculated (Carcinogen: BENZO[A]PYRENE, 50-32-8, Dose [Inhibitor]: 10 MG IN 0.1 ML ACETONE 3/WK ADMINISTERED SIMULTANEOUSLY WITH CARCINOGEN FOR DURATION OF STUDY (STUDY DURATION: 440 D), Route [Inhibitor]: DERMAL, Species: MOUSE, Strain/Sex: ICR/FEMALE, Target Tissue: Type of Lesion: SKIN: SQUAMOUS CARCINOMA, Dose [Carcinogen]: 5 UG IN 0.1 ML ACETONE 3/WK FOR DURATION OF STUDY); 4/19 (21%), 6/20 (30%), -43%, not significant (Carcinogen: DIETHYLNITROSAMINE, 55-18-5, N-METHYL-N-NITROSOUREA, 684-93-5, N-BUTYL-N-(4-HYDROXYBUTYL)NITROSAMINE, 3817-11-6, 1, Carcinogen: DIETHYLNITROSAMINE, 55-18-5, N-METHYL-N-NITROSOUREA, 684-93-5, N-BUTYL-N-(4-HYDROXYBUTYL)NITROSAMINE, 3817-11-6, 1, Dose [Inhibitor]: 0, 0.5% IN DIET FOR 24 WK BEGINNING POST CARCINOGEN TREATMENT (STUDY DURATION: 28 WK), Route [Inhibitor]: ORAL, Species: RAT, Strain/Sex: F344/MALE, Target Tissue: Type of Lesion: KIDNEY: ADENOMA, Dose [Carcinogen]: 100 MG/KG DEN IP ONCE, 20 MG/KG MNU IP 2/WK FOR FIRST 2 WK, 0.05% BBN IN DRINKING WATER DURING FIRST 2 WK, 40 MG/KG D, Dose [Carcinogen]: 100 MG/KG DEN IP ONCE, 20 MG/KG MNU IP 2/WK FOR FIRST 2 WK, 0.05% BBN IN DRINKING WATER DURING FIRST 2 WK, 40 MG/KG D); 4/19 (21%), 5/19 (26%), -24%, not significant (Carcinogen: DIETHYLNITROSAMINE, 55-18-5, N-METHYL-N-NITROSOUREA, 684-93-5, N-BUTYL-N-(4-HYDROXYBUTYL)NITROSAMINE, 3817-11-6, 1, Carcinogen: DIETHYLNITROSAMINE, 55-18-5, N-METHYL-N-NITROSOUREA, 684-93-5, N-BUTYL-N-(4-HYDROXYBUTYL)NITROSAMINE, 3817-11-6, 1, Dose [Inhibitor]: 0, 1% IN DIET FOR 24 WK BEGINNING POST CARCINOGEN TREATMENT (STUDY DURATION: 28 WK), Route [Inhibitor]: ORAL, Species: RAT, Strain/Sex: F344/MALE, Target Tissue: Type of Lesion: KIDNEY: ADENOMA, Dose [Carcinogen]: 100 MG/KG DEN IP ONCE, 20 MG/KG MNU IP 2/WK FOR FIRST 2 WK, 0.05% BBN IN DRINKING WATER DURING FIRST 2 WK, 40 MG/KG D, Dose [Carcinogen]: 100 MG/KG DEN IP ONCE, 20 MG/KG MNU IP 2/WK FOR FIRST 2 WK, 0.05% BBN IN DRINKING WATER DURING FIRST 2 WK, 40 MG/KG D). The “tumour outcome (control, treated, inhibition, significance)” value (Carcinogen: DIETHYLNITROSAMINE, 55-18-5, N-METHYL-N-NITROSOUREA, 684-93-5, N-BUTYL-N-(4-HYDROXYBUTYL)NITROSAMINE, 3817-11-6, 1, Carcinogen: DIETHYLNITROSAMINE, 55-18-5, N-METHYL-N-NITROSOUREA, 684-93-5, N-BUTYL-N-(4-HYDROXYBUTYL)NITROSAMINE, 3817-11-6, 1, Dose [Inhibitor]: 0, 2% IN DIET FOR 24 WK BEGINNING POST CARCINOGEN TREATMENT (STUDY DURATION: 28 WK), Route [Inhibitor]: ORAL, Species: RAT, Strain/Sex: F344/MALE, Target Tissue: Type of Lesion: KIDNEY: ADENOMA, Dose [Carcinogen]: 100 MG/KG DEN IP ONCE, 20 MG/KG MNU IP 2/WK FOR FIRST 2 WK, 0.05% BBN IN DRINKING WATER DURING FIRST 2 WK, 40 MG/KG D, Dose [Carcinogen]: 100 MG/KG DEN IP ONCE, 20 MG/KG MNU IP 2/WK FOR FIRST 2 WK, 0.05% BBN IN DRINKING WATER DURING FIRST 2 WK, 40 MG/KG D) is listed as 4/19 (21%), 13/19 (68%), -224%, p<0.01; the “tumour outcome (control, treated, inhibition, significance)” value (Carcinogen: METHYLCHOLANTHRENE, 56-49-5, Dose [Inhibitor]: 0, 0.5 ML 1/WK FOR 1 YR BEGINNING POST CARCINOGEN TREATMENT (STUDY DURATION: 24 MO), Route [Inhibitor]: GAVAGE, Species: MOUSE, Strain/Sex: SWISS/FEMALE, Target Tissue: Type of Lesion: LUNG: PAPILLARY ADENOMA AND ADENOCARCINOMA, Dose [Carcinogen]: 0.01 MG ON D 1, 7, 14 AND 21 AFTER BIRTH) was 7/11 (64%), 8/12 (67%), -5%, not calculated; the “tumour outcome (control, treated, inhibition, significance)” value (Carcinogen: METHYLCHOLANTHRENE, 56-49-5, Dose [Inhibitor]: 0, 0.5 ML 1/WK FOR 1 YR BEGINNING POST CARCINOGEN TREATMENT (STUDY DURATION: 24 MO), Route [Inhibitor]: GAVAGE, Species: MOUSE, Strain/Sex: SWISS/MALE, Target Tissue: Type of Lesion: LIVER: HEPATOCELLULAR ADENOMA AND CARCINOMA, Dose [Carcinogen]: 0.01 MG ON D 1, 7, 14 AND 21 AFTER BIRTH) is recorded as 3/13 (23%), 2/14 (14%), 39%, not calculated; the “tumour outcome (control, treated, inhibition, significance)” value (Carcinogen: METHYLCHOLANTHRENE, 56-49-5, Dose [Inhibitor]: 0, 0.5 ML 1/WK FOR 1 YR BEGINNING POST CARCINOGEN TREATMENT (STUDY DURATION: 24 MO), Route [Inhibitor]: GAVAGE, Species: MOUSE, Strain/Sex: SWISS/MALE, Target Tissue: Type of Lesion: LUNG: PAPILLARY ADENOMA AND ADENOCARCINOMA, Dose [Carcinogen]: 0.01 MG ON D 1, 7, 14 AND 21 AFTER BIRTH) was 10/13 (77%), 7/14 (50%), 35%, not calculated.
